{
  "source": "patent US12377112B2",
  "about": "“Methods of treating neurocognitive disorders, chronic pain and reducing inflammation” (priority 2019, dated 2025)",
  "system": "healthy subjects",
  "experiment": "Phase 1 study: Positive and Negative Affect Schedule (PANAS)",
  "format": "in vivo, human",
  "conditions": "for PANAS-Negative, change from baseline, LS mean / PANAS-Positive, change from baseline, LS mean: Post-Treatment Day 0",
  "from_the_text": "In some embodiments, the Positive and Negative Affect Schedule (PANAS) is used to evaluate the safety and/or efficacy of psilocybin. The PANAS measures the acute emotional drug effects and comprises 2 mood scales that measure positive and negative affect. Positive affect refers to the propensity to experience positive emotions and interact with others positively. Negative affect involves experiencing the world in a more negative way. Subjects respond to 10 questions associated with negative affect and 10 questions associated with positive affect. The questions are scaled using a 5-point scale that ranges from “slightly or not at all (1)” to “extremely (5)”. A total higher score on the positive affect questions indicates more of a positive effect while a lower score on the negative affect questions indicates less of a negative affect. In some embodiments, after treating according to the methods of the disclosure, a subject experiences a decrease in negative affect score of the PANAS, between about 5% and about 100%, for example about 5%, about 10%, about 15%, about 20%, about 25%, about 30%, about 35%, about 40%, about 45%, about 50%, about 55%, about 60%, about 65%, about 70%, about 75%, about 80%, about 85%, about 90%, about 95%, or about 100%, compared to prior to treatment. In some embodiments, after treating according to the methods of the disclosure, a subject experiences an increase in positive affect score of the PANAS, between about 5% and about 100%, for example about 5%, about 10%, about 15%, about 20%, about 25%, about 30%, about 35%, about 40%, about 45%, about 50%, about 55%, about 60%, about 65%, about 70%, about 75%, about 80%, about 85%, about 90%, about 95%, or about 100%, about 110%, about 120%, about 130%, about 140%, about 150%, about 160%, about 170%, about 180%, about 190%, about 200%, about 210%, about 220%, about 230%, about 240%, about 250%, about 260%, about 270%, about 280%, about 290%, or about 300%, or more, compared to prior to treatment.\nThe effects of psilocybin usually started about 20 to 30 min after administration, becoming most intense in the first 90 to 120 min and gradually subsiding in about 5 to 6 hours. The subjects were asked to remain in the room for the duration of the session regardless of the intensity of the effects, preferably lying down and mostly silent unless they have a concern or need to communicate a discomfort or seek reassurance from the therapist, or use the restroom. A light meal and fruit were available for the subject after the session. After the acute effects of study drug administration had subsided, all subjects were assessed for safety and asked to complete the following assessments: PANAS and 5D-ASC. Medications used, if any, during the study drug administration session, and adverse events were recorded. The subjects also discussed their psilocybin experience with their therapist. The subject was discharged 6 to 8 hours post dose when, in the opinion of the investigator, the acute effects of psilocybin were resolved. After the acute effects of study drug administration subsided, subjects returned home accompanied by a family member, friend, or chaperone. The therapists checked with the subjects by phone at the end of the day to ensure that the subject arrived home safely.\nThe Positive and Negative Affects Schedule (PANAS) score was also evaluated to measure the effect of psilocybin.",
  "data": [
    {"smiles": "CN(C)CCc1c[nH]c2cccc(OP(=O)(O)O)c12", "note": "[Psilocybin, psilocybin]", "values": [
      {"measurement": "PANAS negative affect, mean increase", "setting": "25 mg, baseline to day of dosing", "value": 1.3},
      {"measurement": "PANAS-Negative, change from baseline, LS mean", "setting": "Psilocybin 10 mg", "value": "−0.6"},
      {"measurement": "PANAS-Positive, change from baseline, LS mean", "setting": "Psilocybin 10 mg", "value": 0.7},
      {"measurement": "PANAS-Negative, change from baseline, LS mean", "setting": "Psilocybin 25 mg", "value": 1.3},
      {"measurement": "PANAS-Positive, change from baseline, LS mean", "setting": "Psilocybin 25 mg", "value": "−0.4"}
    ]}
  ]
}
